Consider nine molecules from paper PMC4000213 (PLoS ONE, 2014).

As a reminder, the Km is the substrate concentration at which the rate is half of its maximum. By kcat is commonly meant the maximal rate divided by the concentration of active sites. What is called Vmax is the rate approached at saturating substrate.

Several values for one entry are separate records, joined by “and”; a condition that tells them apart may be missing. Equal values may be shown once. Entries after “also recorded” stand apart in the source; their conditions may differ. Read-outs that look alike come from different tables or passages of the source.

Assay [1] addresses T1, LcA (BoNT/A light chain) (Clostridium botulinum, UniProt P0DPI0). It is filed as biochemical.
Assay [2] deals with T1, LcA (BoNT/A light chain). Type of assay: biochemical. This is another data set of the same source.
For assay [3], the target named is T1, LcA (BoNT/A light chain). To be noted: cited from earlier work.
The target of assay [4] is T1, LcA (BoNT/A light chain). To be noted: cited from earlier work. This is another data set of the same source.
For assay [5], the system named is BoNT/A / LcA. To be noted: cited from earlier work.
In assay [6] the target is T1, LcA (BoNT/A light chain).
Assay [7] deals with T1, LcA (BoNT/A light chain). This is another data set of the same source.
For assay [8], the target named is T1, LcA (BoNT/A light chain). The source holds these as a separate data set.
The target of assay [9] is T1, LcA (BoNT/A light chain). Type of assay: biochemical. The following applies: pH 7.4.

T1 sequence (P0DPI0 1-448 limits assumed): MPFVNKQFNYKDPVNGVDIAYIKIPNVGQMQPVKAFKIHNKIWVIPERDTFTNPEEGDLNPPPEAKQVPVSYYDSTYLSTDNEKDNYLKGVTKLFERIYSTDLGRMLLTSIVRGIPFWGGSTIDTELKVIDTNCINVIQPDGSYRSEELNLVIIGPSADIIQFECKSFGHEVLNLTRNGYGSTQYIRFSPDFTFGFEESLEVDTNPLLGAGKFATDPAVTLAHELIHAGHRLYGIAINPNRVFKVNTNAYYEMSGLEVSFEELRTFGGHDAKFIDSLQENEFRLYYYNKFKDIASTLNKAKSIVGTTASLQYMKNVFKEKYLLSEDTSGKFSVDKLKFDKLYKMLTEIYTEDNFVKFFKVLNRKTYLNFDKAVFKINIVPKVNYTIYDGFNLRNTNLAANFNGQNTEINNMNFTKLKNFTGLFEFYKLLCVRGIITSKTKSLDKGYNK

zinc chloride [ZnCl2]: the “concentration for optimal LcA activity” value in assay [1] is listed as 0.1 mM. In [1] (pH 7.4), the “effect of ZnCl2 on LcA activity, SNAP25 substrate” value is listed as “slight stimulation of the activity; also recorded: activity remained above the control 100%”. For the same molecule, in [2], the “behavior of the new LcA preparation on adding BSA, ZnCl2 and DTT” value is reported as “essentially same behavior”; the “effect of adding DTT and ZnCl2 to the 17-mer substrate reactions” value is “results identical to those without them”. Further, the “effect on kinetic constants or specific activity of LcA with the 17-mer substrate” value in assay [3] is “no effect”.
Turning to SNRTRIDEAN[dnpK]RA[daciaC]RML, in assay [4], the Km was 10 µM and the turnover number (kcat) is 7 s⁻¹.
In the case of (FITC)-ATDRIDQANQRATK(DABCYL)nL-amide, in assay [4], the Km was 19 µM.
Take `O=C(O)CN(CCN(CC(=O)O)CC(=O)O)CC(=O)O` [EDTA, ethylenediaminetetraacetate]: in [5], the “effect on BoNT / LcA activity” value is recorded as “inhibitor of LcA activity”, the “effect on BoNT activities” value is given as “inhibits BoNT activities” and the “effect on BoNT/A activity” value is recorded as “inhibitory”.
For the molecule `Cl.NC(CO)(CO)CO` [tris.HCl], in [5], the “effect on BoNT / LcA activity” value was “inhibitory” and the “effect on BoNT/A activity” value is “inhibitory”.
`[Zn]` [zinc]: the “effect on the LcA reaction depending on concentration” value in [5] is “both stimulating and inhibitory”.
Take SNKTRIDEANQ-RATKML [17-mer]: in assay [6], the Km amounted to 1500 µM, the Vmax came to 33.6 mM/min/mg and the turnover number (kcat) came to 28 s⁻¹. Further, in assay [6] (pH 7.4), the Km came out at 1510 µM; the catalytic constant (kcat) was 28 s⁻¹ and 28 ± 3.5 s⁻¹; the kcat/Km stood at 0.019 µM/s. Moreover, in [7], the substrate conversion was 60–65% and the “substrate converted into products” value is recorded as 40%. In addition, the “quality as LcA substrate (Km, kcat, kcat/Km)” value in assay [8] is “poorest of all the three substrates”. Also, the Km in [4] was 1000 µM.
Turning to `O[C@@H](CS)[C@@H](O)CS` (racemic) [DTT, dithiothreitol], the “concentration for optimal LcA activity” value in [1] is given as 4 mM. Besides, the “effect of DTT on LcA activity, SNAP25 substrate” value in assay [1] (pH 7.4) was “slight stimulation of LcA activity”. Further, in assay [2], the “behavior of the new LcA preparation on adding BSA, ZnCl2 and DTT” value is listed as “essentially same behavior”; the “effect of adding DTT and ZnCl2 to the 17-mer substrate reactions” value is reported as “results identical to those without them”. In [3], the “effect on kinetic constants or specific activity of LcA with the 17-mer substrate” value is recorded as “no effect”. Moreover, in assay [5], the “effect of DTT on solubilized LcA activity” value is “inhibited”; the “effect on the LcA reaction depending on concentration” value is “both stimulating and inhibitory”.
For the molecule `[Cl-].[Na+]` [NaCl, Sodium chloride], the “effect of higher NaCl concentrations on LcA activity, full length SNAP25 substrate” value in [1] is reported as “decrease in LcA activity”. In assay [1] (pH 7.4), the “effect of NaCl on LcA activity, full length SNAP25 substrate” value is listed as “stimulating effect; also recorded: more than sevenfold”. In addition, the “effect of NaCl on LcA activity, 66-mer substrate” value in assay [9] is “stimulating effect; also recorded: The same was also observed when the 66-mer peptide was used as a substrate”. Further, the “effect of NaCl on LcA activity, 17-mer substrate” value in [2] (pH 7.4) is “inhibitory effect”. Further, in [5], the “effect on BoNT activities” value is recorded as “inhibits BoNT activities” and the “effect on BoNT/A activity” value is “inhibitory”.
